Assay results taken from ChEMBL document CHEMBL5726258, “Pyrimidine PDE10 inhibitors” (2017).

Biological target: cAMP and cAMP-inhibited cGMP 3',5'-cyclic phosphodiesterase 10A (Homo sapiens, UniProt Q9Y233)
Assay: Fluorescence Polarization Assay: The fluorescence polarization assay for cyclic nucleotide phosphodiesterases was performed using an IMAP® FP kit supplied by Molecular Devices, Sunnyvale, Calif. (product # R8139). IMAP® technology has been applied previously to phosphodiesterase assays (Huang, W., et al., J. Biomol Screen, 2002, 7: 215). Assays were performed at room temperature in 384-well microtiter plates with an incubation volume of 20.2 μL. Solutions of test compounds were prepared in DMSO and serially diluted with DMSO to yield 8 μL of each of 10 solutions differing by 3-fold in concentration, at 32 serial dilutions per plate.

Sequence of cAMP and cAMP-inhibited cGMP 3',5'-cyclic phosphodiesterase 10A (Q9Y233 whole entry): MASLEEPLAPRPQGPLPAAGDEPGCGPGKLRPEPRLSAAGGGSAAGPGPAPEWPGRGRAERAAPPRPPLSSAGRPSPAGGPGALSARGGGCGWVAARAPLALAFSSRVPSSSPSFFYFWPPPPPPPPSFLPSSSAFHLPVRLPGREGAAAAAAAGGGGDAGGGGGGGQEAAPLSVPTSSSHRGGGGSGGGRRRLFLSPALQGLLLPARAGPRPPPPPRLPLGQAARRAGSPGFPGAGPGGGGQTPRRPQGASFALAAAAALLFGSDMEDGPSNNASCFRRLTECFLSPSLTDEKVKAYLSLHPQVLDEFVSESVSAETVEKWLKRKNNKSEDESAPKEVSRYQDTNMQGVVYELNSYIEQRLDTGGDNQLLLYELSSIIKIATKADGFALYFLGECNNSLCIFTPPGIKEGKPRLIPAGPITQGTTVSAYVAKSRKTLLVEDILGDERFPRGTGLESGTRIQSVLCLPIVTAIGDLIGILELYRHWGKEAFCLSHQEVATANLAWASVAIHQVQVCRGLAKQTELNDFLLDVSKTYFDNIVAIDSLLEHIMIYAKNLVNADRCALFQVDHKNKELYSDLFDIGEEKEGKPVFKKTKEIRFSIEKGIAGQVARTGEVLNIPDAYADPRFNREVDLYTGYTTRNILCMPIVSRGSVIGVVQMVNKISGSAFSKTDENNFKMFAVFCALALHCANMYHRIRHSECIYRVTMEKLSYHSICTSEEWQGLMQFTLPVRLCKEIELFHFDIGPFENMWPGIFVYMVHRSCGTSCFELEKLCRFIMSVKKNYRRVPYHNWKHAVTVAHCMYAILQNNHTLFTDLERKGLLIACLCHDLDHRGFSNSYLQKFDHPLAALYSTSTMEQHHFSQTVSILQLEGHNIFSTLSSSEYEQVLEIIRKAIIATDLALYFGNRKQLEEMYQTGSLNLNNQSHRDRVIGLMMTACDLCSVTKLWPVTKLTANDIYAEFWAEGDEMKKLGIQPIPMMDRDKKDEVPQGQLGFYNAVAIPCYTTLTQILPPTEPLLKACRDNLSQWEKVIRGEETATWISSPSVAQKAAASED

| Ki | Structure (SMILES) |
| --- | --- |
| < 0.01 nM | Cc1ncc(-c2cnc(C(C)(C)O)cc2C)c(OC[C@H]2C[C@@H]2c2ccc3ccccc3n2)n1 |
| 0.83 nM | Cc1ccc([C@H]2C[C@@H]2COc2nc(C)ncc2-c2cccc(C(F)(F)F)c2)nc1 |
| 2.56 nM | Cc1ccc([C@H]2C[C@@H]2COc2nc(C)ncc2-c2cncnc2)nc1 |
| 1.3 nM | COc1ccc([C@H]2C[C@@H]2COc2nc(C)ncc2-c2ccc(Cl)nc2)nc1 |
| 0.57 nM | Cc1ncc(-c2ccc(C(C)(C)O)nc2)c(OC[C@H]2C[C@@H]2c2ccc(F)cn2)n1 |
